Experimental data published in ChEMBL document CHEMBL1201862, “PubChem BioAssay data set” (2004).
Activity calls are given as the source filed them.

Experiments:
[1] = target: T1, Tyrosine-protein phosphatase non-receptor type 22 (Homo sapiens, UniProt Q9Y2R2); assay: SAR LYP1 Fluorescent Assay using OMFP substrate for In Vitro dose response studies - Set 3. [Related pubchem assays (depositor defined):AID1779, AID1784, AID2140, AID2686]; type: functional
T1 sequence (Q9Y2R2 whole entry): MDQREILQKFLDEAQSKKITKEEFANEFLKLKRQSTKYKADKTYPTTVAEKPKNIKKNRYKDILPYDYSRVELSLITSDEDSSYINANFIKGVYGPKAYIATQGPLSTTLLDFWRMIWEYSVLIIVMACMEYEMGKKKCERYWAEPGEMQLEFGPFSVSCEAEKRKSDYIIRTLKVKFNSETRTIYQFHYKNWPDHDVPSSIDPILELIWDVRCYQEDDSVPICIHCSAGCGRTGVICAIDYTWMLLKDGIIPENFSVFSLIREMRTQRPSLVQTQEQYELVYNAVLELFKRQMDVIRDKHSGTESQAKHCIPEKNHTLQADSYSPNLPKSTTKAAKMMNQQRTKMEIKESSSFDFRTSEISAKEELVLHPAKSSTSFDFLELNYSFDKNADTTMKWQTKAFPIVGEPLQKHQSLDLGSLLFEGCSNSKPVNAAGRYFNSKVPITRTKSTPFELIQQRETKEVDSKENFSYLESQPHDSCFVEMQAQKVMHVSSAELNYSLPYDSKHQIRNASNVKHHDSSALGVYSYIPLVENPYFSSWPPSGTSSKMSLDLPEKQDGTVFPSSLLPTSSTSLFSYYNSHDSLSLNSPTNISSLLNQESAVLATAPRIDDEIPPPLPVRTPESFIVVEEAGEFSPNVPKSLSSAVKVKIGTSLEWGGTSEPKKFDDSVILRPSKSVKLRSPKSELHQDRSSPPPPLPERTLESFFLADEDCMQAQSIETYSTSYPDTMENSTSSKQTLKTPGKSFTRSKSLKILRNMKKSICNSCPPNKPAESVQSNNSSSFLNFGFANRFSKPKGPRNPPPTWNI

[2] = target: T2, Tyrosine-protein phosphatase non-receptor type 7 (Homo sapiens, UniProt P35236); assay: HePTP (PTPN7) phosphatase inhibitor potency, SAR follow-up, biochemical, set 2 (AID 449736); type: functional
T2 sequence (P35236 whole entry): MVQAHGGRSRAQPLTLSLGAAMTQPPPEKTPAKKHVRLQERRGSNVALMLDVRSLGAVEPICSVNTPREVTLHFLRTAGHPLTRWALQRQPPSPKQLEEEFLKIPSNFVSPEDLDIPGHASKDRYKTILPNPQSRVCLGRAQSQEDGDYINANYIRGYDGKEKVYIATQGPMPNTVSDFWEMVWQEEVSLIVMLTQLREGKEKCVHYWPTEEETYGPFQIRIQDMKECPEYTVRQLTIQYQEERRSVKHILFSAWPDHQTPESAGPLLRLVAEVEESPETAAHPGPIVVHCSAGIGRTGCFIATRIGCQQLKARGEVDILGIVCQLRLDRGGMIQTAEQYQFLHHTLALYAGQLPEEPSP

[3] = target: Tyrosine-protein phosphatase non-receptor type 12 (Homo sapiens, UniProt Q05209); assay: SAR Selectivity Analysis of small molecule inhibitors of PEST using pCAP in a fluorescence assay. [Related pubchem assays (depositor defined):AID1779, AID1784, AID2135]; type: functional
J774.A1 = assay: Confirmation of image-based Screening Assay for Inhibitors of Phagocytosis. [Related pubchem assays (depositor defined):AID1029, AID1643]; type: functional, cell-based; details: Mus musculus
[4] = cytotoxicity in HEK-293T cells, dose response, cytotoxicity control for TCR NF-kB inhibitor project, luminescence, T-cell screen hits (AID 489026); type: functional, cell-based;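 note: cells exposed to compound about 14 hours before the viability readout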
[5] = target: T1, Tyrosine-protein phosphatase non-receptor type 22; assay: LYP (PTPN22) phosphatase inhibitor potency, SAR follow-up, biochemical, pCAP fluorogenic substrate, fluorescence, set 3 (AID 449727); type: functional
Cannabinoid receptor 1 [6] = target: T3, Cannabinoid receptor 1 (Homo sapiens, UniProt P21554); assay: SAR analysis of agonists of the Cannabinoid Receptor 1 using an Image-Based Assay - Set 4. [Related pubchem assays (depositor defined):AID2013, AID2026]; type: functional
Cannabinoid receptor 2 [7] = target: T4, Cannabinoid receptor 2 (Homo sapiens, UniProt P34972); assay: SAR analysis of antagonists of the Cannabinoid Receptor 2 using an Image-Based Assay - Set 3. [Related pubchem assays (depositor defined):AID2013, AID2026]; type: functional
Cannabinoid receptor 1 [8] = target: T3, Cannabinoid receptor 1; assay: SAR analysis of antagonists of the Cannabinoid Receptor 1 using an Image-Based Assay - Set 4. [Related pubchem assays (depositor defined):AID2013, AID2026]; type: functional
Cannabinoid receptor 2 [9] = target: T4, Cannabinoid receptor 2; assay: SAR analysis of agonists of the Cannabinoid Receptor 2 using an Image-Based Assay - Set 3. [Related pubchem assays (depositor defined):AID2013, AID2026]; type: functional
[10] = target: T5, G-protein coupled receptor 35 (Homo sapiens, UniProt Q9HC97); assay: SAR analysis of Agonists of the GPR35 Receptor using an Image-Based Assay - Set 4. [Related pubchem assays (depositor defined):AID2013, AID2026]; type: functional
[11] = target: T5, G-protein coupled receptor 35; assay: SAR analysis of Antagonists of the GPR35 Receptor using an Image-Based Assay - Set 6. [Related pubchem assays (depositor defined):AID2013, AID2026]; type: functional
[12] = target: G-protein coupled receptor 55 (Homo sapiens, UniProt Q9Y2T6); assay: SAR Analysis of Selective Antagonists of GPR55 using an Image-Based Assay - Set 4. [Related pubchem assays (depositor defined):AID2013, AID2026]; type: functional;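 note: antagonism of response to 5 µM lysophosphatidylinositol agonist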
[13] = target: T1, Tyrosine-protein phosphatase non-receptor type 22; type: functional
[14] = target: T1, Tyrosine-protein phosphatase non-receptor type 22; type: functional; remark: listed apart in the source
[15] = target: T2, Tyrosine-protein phosphatase non-receptor type 7; type: functional
[16] = target: Peroxisome proliferator-activated receptor gamma/Nuclear receptor coactivator 1 (Homo sapiens, UniProt P37231); assay: TR-FRET dose response biochemical High Throughput Screening assay for agonists of the steroid receptor coactivator 1 (SRC-1) recruitment by the peroxisome proliferator-activated receptor gamma (PPAR gamma): non-selective agonists. [Related pubchem assays (depositor defined):AID1300, AID1808, AID504735, AID631]; type: protein assay
[17] = target: Peroxisome proliferator-activated receptor gamma/Nuclear receptor coactivator 2 (Homo sapiens, UniProt P37231); assay: (§1) TR-FRET dose response biochemical High Throughput Screening assay for agonists of the steroid receptor coactivator 2 (SRC-2) recruitment by the peroxisome proliferator-activated receptor gamma (PPAR gamma): non-selective agonists. [Related pubchem assays: 1297, 1032 ]; type: functional
[18] = target: Peroxisome proliferator-activated receptor gamma/Nuclear receptor coactivator 3 (Homo sapiens, UniProt P37231); assay: as §1, with “3 (SRC-3)” for “2 (SRC-2)”, “1301 (Confirmation screen.), 1048 (Primary screen.)]” for “1297, 1032 ]”; type: functional
[19] = Counterscreen for AddAB inhibitors: absorbance-based bacterial cell-based high throughput dose response assay for inhibitors of bacterial viability. [Related pubchem assays (depositor defined):AID435030, AID449728, AID449731, AID488942, AID488955, AID488956]; type: functional
Exodeoxyribonuclease V = Exodeoxyribonuclease V (Escherichia coli (strain K12), UniProt P04993+P07648+P08394); assay: E. coli RecBCD inhibitors, dose response, counter-screen for AddAB inhibitor project, absorbance, V66 E. coli, mutant T4 phage (AID 492957); type: functional, cell-based, Escherichia coli str. K-12 substr. MG1655
[20] = target: T6, Delta-type opioid receptor (Homo sapiens, UniProt P41143); assay: HTS Image-Based Screen for Antagonists of the DOR Receptor. [Related pubchem assays (depositor defined):AID1777, AID1785, AID1786, AID2133]; type: functional
Mu-type opioid receptor = Mu-type opioid receptor (Homo sapiens, UniProt P35372); assay: HTS Image-Based Screen for Agonists of the MOR Receptor. [Related pubchem assays (depositor defined):AID1777, AID1785, AID1786, AID2133]; type: functional;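 note: imaging of beta-arrestin GFP recruitment into spots after receptor activation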
[21] = target: T7, Kappa-type opioid receptor (Homo sapiens, UniProt P41145); type: functional
[22] = target: T6, Delta-type opioid receptor; assay: HTS Image-Based Screen for Agonists of the DOR Receptor. [Related pubchem assays (depositor defined):AID1777, AID1786, AID2133]; type: functional
[23] = target: T7, Kappa-type opioid receptor; type: functional; remark: listed apart in the source
Fatty acid synthase [24] = target: T8, Fatty acid synthase (Homo sapiens, UniProt P49327); assay: FAS thioesterase domain inhibitors, dose response, biochemical, kinetic fluorescence intensity (AID 624326); type: functional;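 note: rate of fluorescence rise from hydrolysis of a fluorogenic O-methyl fluorescein ester substrate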
Fatty acid synthase [25] = target: T8, Fatty acid synthase; assay: FAS thioesterase domain inhibitors, dose response, biochemical, endpoint fluorescence intensity, uHTS hits (AID 624327); type: functional;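 note: fluorescence from hydrolysis of an O-methyl fluorescein acyl ester substrate by the enzyme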
[26] = target: Protein phosphatase methylesterase 1 (Homo sapiens, UniProt Q9Y570); assay: Late stage assay provider results from the probe development effort to identify inhibitors of protein phosphatase methylesterase 1 (PME-1): Gel-based Activity-Based Protein Profiling (ABPP) IC50 Set 2. [Related pubchem assays (depositor defined):AID2130, AID2143, AID2171, AID2174, AID2177, AID2232, AID2233, AID2291, AID2363, AID2365, AID2366, AID2368, AID2369, AID2371, AID463090, AID463091]; type: functional
[27] = (§2) Late stage assay provider results from the probe development effort to identify inhibitors of Protein Phosphatase Methylesterase 1 (PME-1): luminescence-based […] dose response assay to determine cytotoxicity of inhibitor compounds. [Related pubchem assays (depositor defined):AID2130, AID2143, AID2171, AID2174, AID2177, AID2232, AID2233, AID2291, AID2363, AID2365, AID2366, AID2368, AID2369, AID2371, AID463124, AID463130, AID463131, AID463132, AID463146, AID463149] Panel member name: Serum-free Media; type: toxicity
[28] = as §2, with “Fetal Calf Serum” for “Serum-free Media”; type: toxicity
[29] = target: Intestinal-type alkaline phosphatase (Homo sapiens, UniProt P09923); assay: inhibition of human intestinal alkaline phosphatase – biochemical, dose response (AID 488876); type: functional
[30] = target: T9, Alkaline phosphatase, tissue-nonspecific isozyme (Homo sapiens, UniProt P05186); assay: TNAP enzyme inhibition by screening hits, dose response, selectivity assay for mouse IAP inhibitor project, biochemical, human TNAP, uHTS hits (AID 488906); type: functional
T9 sequence (P05186 whole entry): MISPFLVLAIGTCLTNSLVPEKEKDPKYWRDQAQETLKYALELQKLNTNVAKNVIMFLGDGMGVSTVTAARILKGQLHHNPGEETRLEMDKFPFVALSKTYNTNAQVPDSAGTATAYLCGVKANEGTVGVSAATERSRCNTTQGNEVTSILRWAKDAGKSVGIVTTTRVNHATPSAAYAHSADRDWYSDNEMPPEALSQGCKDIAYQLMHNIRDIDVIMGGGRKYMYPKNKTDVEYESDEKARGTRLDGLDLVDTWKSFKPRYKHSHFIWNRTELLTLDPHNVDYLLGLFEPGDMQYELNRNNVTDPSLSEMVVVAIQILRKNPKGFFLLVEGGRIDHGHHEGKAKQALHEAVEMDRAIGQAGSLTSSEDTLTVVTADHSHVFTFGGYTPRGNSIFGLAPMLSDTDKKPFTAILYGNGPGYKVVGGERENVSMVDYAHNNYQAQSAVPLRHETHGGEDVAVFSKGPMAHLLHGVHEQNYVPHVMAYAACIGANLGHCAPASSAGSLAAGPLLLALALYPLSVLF

[31] = target: Intestinal-type alkaline phosphatase (Mus musculus, UniProt P24822); assay: PubChem AID 488785; type: functional
Sequence of Intestinal-type alkaline phosphatase (Mus musculus, UniProt P24822) (P24822 whole entry): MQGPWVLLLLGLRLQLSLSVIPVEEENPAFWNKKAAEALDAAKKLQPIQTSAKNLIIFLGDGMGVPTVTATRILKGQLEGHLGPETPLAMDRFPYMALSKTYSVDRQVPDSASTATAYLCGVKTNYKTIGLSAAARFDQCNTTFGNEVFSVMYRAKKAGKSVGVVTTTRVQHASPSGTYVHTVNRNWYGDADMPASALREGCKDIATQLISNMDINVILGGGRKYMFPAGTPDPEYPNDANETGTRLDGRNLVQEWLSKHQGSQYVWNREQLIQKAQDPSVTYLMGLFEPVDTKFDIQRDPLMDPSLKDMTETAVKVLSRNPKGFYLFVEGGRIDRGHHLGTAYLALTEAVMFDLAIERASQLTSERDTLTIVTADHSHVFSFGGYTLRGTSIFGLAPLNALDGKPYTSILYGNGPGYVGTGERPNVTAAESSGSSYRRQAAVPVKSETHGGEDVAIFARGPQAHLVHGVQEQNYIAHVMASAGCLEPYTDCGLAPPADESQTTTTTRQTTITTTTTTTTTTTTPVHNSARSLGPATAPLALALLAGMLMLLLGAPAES

T8 sequence (P49327 whole entry, the tested form may be a part): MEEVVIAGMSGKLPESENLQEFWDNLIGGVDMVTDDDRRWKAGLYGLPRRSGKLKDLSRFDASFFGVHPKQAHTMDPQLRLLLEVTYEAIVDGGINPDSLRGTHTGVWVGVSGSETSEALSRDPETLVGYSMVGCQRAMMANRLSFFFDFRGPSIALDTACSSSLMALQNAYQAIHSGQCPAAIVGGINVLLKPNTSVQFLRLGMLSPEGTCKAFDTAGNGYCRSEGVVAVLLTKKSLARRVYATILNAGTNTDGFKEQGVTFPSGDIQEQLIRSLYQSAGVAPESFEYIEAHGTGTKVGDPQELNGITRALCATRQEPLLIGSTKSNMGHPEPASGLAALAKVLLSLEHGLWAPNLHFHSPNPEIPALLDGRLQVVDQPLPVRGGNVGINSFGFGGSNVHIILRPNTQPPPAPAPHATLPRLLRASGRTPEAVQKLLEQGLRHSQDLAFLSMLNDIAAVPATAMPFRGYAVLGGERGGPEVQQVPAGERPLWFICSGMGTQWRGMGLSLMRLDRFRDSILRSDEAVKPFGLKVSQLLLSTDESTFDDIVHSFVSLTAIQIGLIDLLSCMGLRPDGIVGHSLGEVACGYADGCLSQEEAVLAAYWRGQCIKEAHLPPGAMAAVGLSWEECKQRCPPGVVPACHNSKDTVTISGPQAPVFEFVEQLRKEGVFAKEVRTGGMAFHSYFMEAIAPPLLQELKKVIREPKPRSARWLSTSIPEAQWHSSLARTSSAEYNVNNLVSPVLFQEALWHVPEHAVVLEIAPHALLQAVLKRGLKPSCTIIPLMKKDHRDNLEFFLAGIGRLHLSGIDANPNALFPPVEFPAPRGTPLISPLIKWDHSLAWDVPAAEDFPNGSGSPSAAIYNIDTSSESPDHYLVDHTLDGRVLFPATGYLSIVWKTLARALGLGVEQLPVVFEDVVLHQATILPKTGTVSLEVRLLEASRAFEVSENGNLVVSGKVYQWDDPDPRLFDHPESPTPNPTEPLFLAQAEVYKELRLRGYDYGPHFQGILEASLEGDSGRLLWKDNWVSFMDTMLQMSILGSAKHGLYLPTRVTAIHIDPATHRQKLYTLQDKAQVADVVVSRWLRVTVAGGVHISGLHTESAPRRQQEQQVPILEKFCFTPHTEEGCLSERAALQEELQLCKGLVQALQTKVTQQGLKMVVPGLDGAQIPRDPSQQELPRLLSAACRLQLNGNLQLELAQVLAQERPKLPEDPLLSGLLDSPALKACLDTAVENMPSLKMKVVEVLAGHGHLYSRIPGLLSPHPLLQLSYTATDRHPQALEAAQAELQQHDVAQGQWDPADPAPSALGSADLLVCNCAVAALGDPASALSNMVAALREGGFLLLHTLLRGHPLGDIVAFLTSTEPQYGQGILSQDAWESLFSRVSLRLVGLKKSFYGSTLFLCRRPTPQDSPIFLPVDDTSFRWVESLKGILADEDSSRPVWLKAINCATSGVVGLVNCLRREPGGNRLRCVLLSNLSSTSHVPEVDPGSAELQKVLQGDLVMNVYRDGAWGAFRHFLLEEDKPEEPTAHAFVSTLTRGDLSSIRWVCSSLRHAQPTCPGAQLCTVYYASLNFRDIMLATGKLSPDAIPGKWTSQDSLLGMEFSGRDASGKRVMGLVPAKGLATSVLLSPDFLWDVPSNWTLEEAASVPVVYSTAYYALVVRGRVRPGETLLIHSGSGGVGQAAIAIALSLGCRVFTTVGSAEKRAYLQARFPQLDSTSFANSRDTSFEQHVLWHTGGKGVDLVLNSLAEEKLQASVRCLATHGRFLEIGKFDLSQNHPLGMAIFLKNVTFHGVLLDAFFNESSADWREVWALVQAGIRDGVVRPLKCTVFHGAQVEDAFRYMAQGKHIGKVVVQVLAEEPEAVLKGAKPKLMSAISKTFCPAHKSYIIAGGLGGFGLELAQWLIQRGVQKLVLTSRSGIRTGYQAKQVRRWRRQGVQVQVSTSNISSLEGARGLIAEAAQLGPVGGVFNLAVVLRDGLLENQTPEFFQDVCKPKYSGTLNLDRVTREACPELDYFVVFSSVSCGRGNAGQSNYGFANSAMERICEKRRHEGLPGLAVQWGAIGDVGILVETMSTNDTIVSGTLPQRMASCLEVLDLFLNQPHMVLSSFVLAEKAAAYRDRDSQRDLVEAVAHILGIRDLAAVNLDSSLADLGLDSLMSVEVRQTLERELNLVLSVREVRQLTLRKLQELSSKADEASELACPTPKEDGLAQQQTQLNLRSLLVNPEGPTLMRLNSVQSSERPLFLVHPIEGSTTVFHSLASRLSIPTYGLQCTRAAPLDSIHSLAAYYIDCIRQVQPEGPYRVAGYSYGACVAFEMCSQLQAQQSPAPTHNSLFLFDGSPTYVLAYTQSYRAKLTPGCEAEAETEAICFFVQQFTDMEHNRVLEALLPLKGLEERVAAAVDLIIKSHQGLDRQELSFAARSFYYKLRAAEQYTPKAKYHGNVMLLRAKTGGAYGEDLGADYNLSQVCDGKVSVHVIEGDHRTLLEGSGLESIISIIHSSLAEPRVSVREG
T5 sequence (Q9HC97 whole entry): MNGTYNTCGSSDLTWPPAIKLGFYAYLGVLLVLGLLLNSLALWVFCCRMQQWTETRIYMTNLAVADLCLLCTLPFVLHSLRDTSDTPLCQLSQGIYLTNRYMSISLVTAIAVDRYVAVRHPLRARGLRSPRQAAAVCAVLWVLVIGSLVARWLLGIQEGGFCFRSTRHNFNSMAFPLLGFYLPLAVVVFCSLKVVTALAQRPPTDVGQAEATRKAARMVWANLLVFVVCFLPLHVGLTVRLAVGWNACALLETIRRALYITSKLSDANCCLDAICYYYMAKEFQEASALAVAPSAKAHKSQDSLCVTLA
T7 sequence (P41145 whole entry): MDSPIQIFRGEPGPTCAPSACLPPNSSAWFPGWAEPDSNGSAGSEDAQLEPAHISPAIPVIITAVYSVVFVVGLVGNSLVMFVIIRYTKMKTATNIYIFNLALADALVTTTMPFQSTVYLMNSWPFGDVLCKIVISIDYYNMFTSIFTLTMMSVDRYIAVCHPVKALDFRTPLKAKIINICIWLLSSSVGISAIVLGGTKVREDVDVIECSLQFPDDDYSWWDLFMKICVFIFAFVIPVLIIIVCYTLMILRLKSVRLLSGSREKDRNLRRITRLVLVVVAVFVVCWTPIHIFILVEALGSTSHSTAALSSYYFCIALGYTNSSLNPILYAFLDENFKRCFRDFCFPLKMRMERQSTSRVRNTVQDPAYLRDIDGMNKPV
T6 sequence (P41143 whole entry): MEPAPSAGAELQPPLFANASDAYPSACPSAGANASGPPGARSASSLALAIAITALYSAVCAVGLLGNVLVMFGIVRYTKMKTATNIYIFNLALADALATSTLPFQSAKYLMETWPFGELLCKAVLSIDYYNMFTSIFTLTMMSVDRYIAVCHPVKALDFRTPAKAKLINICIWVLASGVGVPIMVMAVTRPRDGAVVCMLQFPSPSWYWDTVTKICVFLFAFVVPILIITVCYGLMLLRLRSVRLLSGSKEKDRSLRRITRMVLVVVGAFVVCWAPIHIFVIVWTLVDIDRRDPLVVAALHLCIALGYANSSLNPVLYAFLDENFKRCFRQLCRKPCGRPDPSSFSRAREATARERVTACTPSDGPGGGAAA
T4 sequence (P34972 whole entry): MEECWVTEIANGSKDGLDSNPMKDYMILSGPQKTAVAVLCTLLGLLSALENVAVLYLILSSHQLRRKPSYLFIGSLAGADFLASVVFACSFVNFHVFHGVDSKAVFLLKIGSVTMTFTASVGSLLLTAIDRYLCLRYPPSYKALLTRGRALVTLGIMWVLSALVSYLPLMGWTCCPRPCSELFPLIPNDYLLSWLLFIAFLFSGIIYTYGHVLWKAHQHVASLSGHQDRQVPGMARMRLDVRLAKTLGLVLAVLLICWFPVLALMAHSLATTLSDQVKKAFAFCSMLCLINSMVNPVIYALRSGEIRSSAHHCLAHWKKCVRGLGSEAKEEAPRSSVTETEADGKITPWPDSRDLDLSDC
T3 sequence (P21554 whole entry): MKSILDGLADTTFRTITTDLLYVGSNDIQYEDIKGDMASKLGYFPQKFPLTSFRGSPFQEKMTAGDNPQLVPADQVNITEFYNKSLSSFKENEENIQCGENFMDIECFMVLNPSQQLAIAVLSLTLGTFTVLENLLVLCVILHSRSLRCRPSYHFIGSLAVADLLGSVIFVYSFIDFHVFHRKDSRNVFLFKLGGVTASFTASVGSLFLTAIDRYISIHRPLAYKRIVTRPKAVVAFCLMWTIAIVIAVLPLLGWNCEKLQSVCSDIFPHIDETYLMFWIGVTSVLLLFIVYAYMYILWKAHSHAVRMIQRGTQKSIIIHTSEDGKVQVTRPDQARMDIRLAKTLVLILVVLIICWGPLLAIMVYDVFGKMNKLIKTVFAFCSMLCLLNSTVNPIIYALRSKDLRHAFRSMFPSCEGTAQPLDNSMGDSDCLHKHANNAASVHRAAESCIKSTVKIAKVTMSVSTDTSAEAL

For `CCOC(=O)C(C)Oc1cccc2c(=O)n(CC(=O)NCc3ccc4c(c3)OCO4)ccc12` (stereo unspecified), the IC50 [1] was > 100 µM (inactive), the IC50 [2] was 11.4 µM (active) and the IC50 [3] was > 100 µM (inactive). For the same compound, the IC50 (J774.A1) was 4.93 µM (active), the IC50 [4] was > 80 µM (inactive) and the IC50 [5] was > 100 µM (inactive).
In the case of `CNC(=O)c1cc2c(=O)n3ccccc3nc2n(C2CCCC2)c1=N`, the EC50 (Cannabinoid receptor 1 [6]) is reported as > 32 µM (inactive), the IC50 (Cannabinoid receptor 2 [7]) is reported as > 32 µM (inactive) and the IC50 (Cannabinoid receptor 1 [8]) is reported as > 32 µM (inactive). For the same compound, the EC50 (Cannabinoid receptor 2 [9]) was 2.52 µM (active), the EC50 [10] was > 32 µM (inactive) and the IC50 [11] was > 32 µM (inactive). The IC50 [12] was 5.92 µM (active).
For `CSc1nsc(SCC(=O)Nc2cccc(C(C)=O)c2)n1`, the IC50 [13] was > 79.4 µM (inactive), the IC50 [14] was > 79.4 µM (inactive) and the IC50 [15] was > 79.4 µM (inactive).
With `Cc1ccccc1Nc1nc(-c2ccccc2)c(C(=O)Nc2cccnc2)s1` the EC50 [16] was 12.6 µM (inactive), the EC50 [17] was 11.6 µM (not active) and the EC50 [18] was > 79.4 µM (not active).
For `N#Cc1c(-c2ccccc2)ccn(Cc2cccc(Cl)c2)c1=O`, the IC50 [19] was > 119 µM (inactive) and the IC50 (Exodeoxyribonuclease V) was > 119 µM (inactive).
With `O=C1C2ON(c3ccccc3)C(c3cccnc3)C2C(=O)N1c1ccc(Cl)c(Cl)c1` (stereo unspecified) the IC50 [20] was > 32 µM (inactive), the EC50 (Mu-type opioid receptor) was > 32 µM (inactive) and the EC50 [21] was over 35 µM. For the same compound, the EC50 [22] was > 32 µM (inactive), the EC50 [23] was 26.4 µM and the IC50 (Fatty acid synthase [24]) was 8.26 µM (active). For the same compound, the IC50 (Fatty acid synthase [25]) was 9.19 µM (active).
For `COC(=O)N1C(=O)[C@](c2ccccc2)(C2CCCC2)N1C(=O)OC`, the IC50 [26] was 0.01 µM (active), the CC50 [27] was > 50 µM (inactive) and the CC50 [28] was > 50 µM (inactive). The IC50 (Fatty acid synthase [24]) was 0.715 µM (active) and the IC50 (Fatty acid synthase [25]) was 0.884 µM (active).
For `NS(=O)(=O)c1ccc2c(c1)oc(=O)c1cc(S(N)(=O)=O)ccc12`, the IC50 [29] was 7.73 µM (active), the IC50 [30] was 11.8 µM (active) and the IC50 [31] was 2.51 µM (active).
